Assay results from patent publication US12655124B2, “Heterocyclic compounds as modulators of stimulator of interferon genes (STING)” (RYVU THERAPEUTICS S.A., priority 2019, dated 2026).

Key:
[1] = target: human STING (Homo sapiens, UniProt Q86WV6); assay: Fluorescence Thermal Shift assay (hSTING FTS binding assay); settings: ΔTm, STING 0.1 mg/mL, SyproOrange, 25 to 99° C.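 Also: STING preincubated with compound for 20 min in HEPES NaCl buffer pH 7.5.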
Method: Fluorescence Thermal Shift Assay Compounds of the present invention were tested for binding to human STING in Fluorescence Thermal Shift assay. […] Final STING concentration was 0.1 mg/mL. Thermal unfolding was performed in Real-Time PCR QuantStudio 6 Flex System (Applied Biosystems), from 25 to 99° C., with continuous ramp mode and ramp rate 0.033° C./s. The data were analyzed using Protein Thermal Shift Software (ThermoFisher).

[2] = system: CT26 murine colon carcinoma allografts; assay: In vivo anti-tumor efficacy, CT26 allograft; parameters: species or system female Balb/C mice; settings: once every fifth day on three occasions; for response of CT26 tumors to the treatment: intravenously, all dose levels
Method: In Vivo Anti-Tumor Efficacy The efficacy of Example 4, Example 31 and Example 57 was evaluated in established CT26 murine colon carcinoma allografts in female Balb/C mice. Compounds were formulated in 5% ethanol with 10% Captisol in PBS and administered intravenously, once every fifth day on three occasions. The solution was prepared fresh prior to each administration. […] By the end of the study there was one complete response among animals treated at 10 mg/kg of Example 4. […] By the end of the study, on day 43, there was one complete response recorded in group treated at 20 mg/kg of Example 57.

Sequence of human STING (Q86WV6 whole entry H232R): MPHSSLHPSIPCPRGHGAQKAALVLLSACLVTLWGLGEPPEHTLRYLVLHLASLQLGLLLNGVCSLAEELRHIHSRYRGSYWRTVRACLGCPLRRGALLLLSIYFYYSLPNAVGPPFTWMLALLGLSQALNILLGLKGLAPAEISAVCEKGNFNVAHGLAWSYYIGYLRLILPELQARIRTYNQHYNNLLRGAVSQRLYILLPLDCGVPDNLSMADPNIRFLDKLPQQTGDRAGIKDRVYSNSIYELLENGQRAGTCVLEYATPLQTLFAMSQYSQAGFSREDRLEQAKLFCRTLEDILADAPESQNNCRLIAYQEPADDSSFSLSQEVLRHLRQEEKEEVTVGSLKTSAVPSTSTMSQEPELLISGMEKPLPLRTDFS

Structure (SMILES) | hSTING FTS binding assay (ΔT ° C.) [1] | tumor growth effect compared to the control group ([2]; 7 mg/kg intravenously) | tumor growth effect compared to the control group ([2]; 15 mg/kg intravenously) | tumor growth effect compared to the control group ([2]; 30 mg/kg intravenously) | complete responses by the end of the study ([2]; 30 mg/kg intravenously, day 43) | response of CT26 tumors to the treatment [2] | complete responses by the end of the study ([2]; 10 mg/kg intravenously) | tumor growth effect compared to the control group ([2]; 10 mg/kg intravenously) | tumor growth effect compared to the control group ([2]; 5 mg/kg intravenously) | tumor growth effect compared to the control group ([2]; 20 mg/kg intravenously) | complete responses by the end of the study ([2]; 20 mg/kg intravenously, day 43) | dose dependence of the tumor response ([2]; 5, 10 and 20 mg/kg intravenously)
Cc1ccc(N2CCC[C@H](N(Cc3ccnc(C)c3)Cc3cn(C4CC4)c4cc(N5CCC[C@H](O)C5)c(F)cc4c3=O)C2)cn1.Cl [Example 31, 1-cyclopropyl-6-fluoro-7-[(3S)-3-hydroxypiperidin-1-yl]-3-({[(3S)-1-(6-methylpyridin-3-yl)piperidin-3-yl][(2-methylpyridin-4-yl)methyl]amino}methyl)-1,4-dihydroquinolin-4-one Hydrochloride] | +++ (ΔTm≥20° C.) | slight tumor growth delay | prominently efficacious | prominently efficacious | two | responded prominently |  |  |  |  |  | 
COc1cc(CN(Cc2cn(C3CC3)c3cc(F)c(F)cc3c2=O)[C@H]2CCCN(c3ccc(N)nc3)C2)ccn1.Cl [Example 4, 3-({[(3S)-1-(6-Aminopyridin-3-yl)piperidin-3-yl][(2-methoxypyridin-4-yl)methyl]amino}methyl)-1-cyclopropyl-6,7-difluoro-1,4-dihydroquinolin-4-one Hydrochloride] | +++ (ΔTm≥20° C.) | efficacious and caused tumor growth delay or significant decrease of the tumor size |  |  |  | responded prominently | one | efficacious and caused tumor growth delay or significant decrease of the tumor size |  |  |  | 
Cc1ccc(N2CCC[C@H](N(Cc3ccnc(C)c3)Cc3cn(C4CC4)c4cc(N5CC[C@H](N)C(F)(F)C5)c(F)cc4c3=O)C2)cn1.Cl (single isomer, unassigned) [Example 57] | +++ (ΔTm≥20° C.) |  |  |  |  | responded prominently |  | moderately efficacious | minimal tumor growth delay | full efficacious | one | dose dependent manner
